Laboratory results from ChEMBL document CHEMBL6087476, “Positive Charge-Concentrated Dimeric Lipopeptides with Enhanced Protease Resistance: A Potential Solution for Systemic Bacterial Infections” (J Med Chem, 2025).
Values after ≈ are worked out from the molar mass of the structure shown. Active and inactive are the calls of the source. The rule behind the calls is not given here.

Tests used:
Escherichia coli [1] = test: Bactericidal activity against Escherichia coli ATCC 25922 assessed as reduction in bacterial viability at 4 uM measured within 30 mins; assay type: functional; settings: 0.5 h
[2] = Toxicity in ICR mouse assessed as alkaline phosphatase (ALP) level in serum at 5 to 20 mg/kg, ip measured after 3 days; assay type: organism-based; settings: in vivo, 72 h, dose 5-20 mg/kg, time 3 day
Escherichia coli [3] = test: Antibacterial activity against Escherichia coli ATCC 25922 injected intraperitoneally in ICR mouse assessed as reduction in symptoms by measuring disorganized hepatic cords in liver at 10 mg/kg, ip measured after 12 hrs by H and E staining based assay; assay type: functional, organism-based
Escherichia coli [4] = test: Induction of membrane damage in Escherichia coli ATCC 25922 assessed as ruptured membrane by analysing green fluorescence at 8 uM measured after 1 hr incubation by SYTO - live and dead staining based fluorescence microscopy; assay type: functional, organism-based
Escherichia coli [5] = test: Antimicrobial activity against Escherichia coli ATCC 25922 assessed as increase in absorbance incubated for 4 hrs in presence of 12.5% serum; assay type: functional, organism-based
Escherichia coli [6] = test: Antimicrobial activity against Escherichia coli ATCC 25922 assessed as increase in absorbance at 8 mg/ml incubated for 8 hrs in presence of chymotrypsin; assay type: functional, organism-based
Escherichia coli [7] = test: Induction of ROS accumulation in Escherichia coli ATCC 25922 at 4 uM incubated for 30 mins by DCFH-DA assay; assay type: functional, organism-based
[8] = system: Staphylococcus epidermidis; test: Antimicrobial activity against Staphylococcus epidermidis 12228 assessed as increase in absorbance incubated for 20 to 22 hrs; assay type: functional; settings: time 20-22 hrs
Pseudomonas aeruginosa [9] = test: Antimicrobial activity against Pseudomonas aeruginosa 25349 assessed as increase in absorbance incubated for 20 to 22 hrs; assay type: functional; settings: time 20-22 hrs
Mus musculus [10] = test: Anti-inflammatory activity against Escherichia coli ATCC 25922-induced peritonitis ICR mouse model assessed as decrease in IL-1 beta level in serum spleen at 10 mg/kg, ip measured after 12 hrs; assay type: functional, organism-based
[11] = Cytotoxicity against porcine IPEC-J2 cells assessed as cell death measured after 18 to 24 hrs by MTT assay; assay type: functional; settings: Sus scrofa, time 18-24 hrs
[12] = Hemolytic activity in healthy human RBC assessed as hemolysis incubated for 1 hr by microplate reader; assay type: toxicity, cell-based; settings: erythrocyte
Escherichia coli [13] = test: Antimicrobial activity against Escherichia coli ATCC 25922 assessed as increase in absorbance incubated for 20 to 22 hrs; assay type: functional; settings: time 20-22 hrs
Chymotrypsin [14] = target: T1, Chymotrypsin (Homo sapiens, UniProt Q99895+P17538+P40313+Q6GPI1); test: Stability of compound assessed as chymotrypsin (unknown origin)-mediated compound structural integrity change at 8 mg/ml incubated for 1 to 8 hrs by 16.5% tricine-SDS-PAGE analysis; assay type: ADME, protein assay; settings: time 1-8 hrs
Cell membrane [15] = test: Induction of Outer membrane permeability in Escherichia coli ATCC 25922 incubated for 30 mins by N-phenyl-1-naphthylamine (NPN) uptake assay; assay type: subcellular; settings: dose 1-16 µM
Lipopolysaccharide (LPS) = test: Binding affinity to Escherichia coli O111:B4 Lipopolysaccharide by fluorescent probe BODIPYTR-cadaverine (BC) assay; settings: dose 1-16 µM
[16] = Stability of compound assessed as pepsin (unknown origin)-mediated compound structural integrity change at 8 mg/ml incubated for 1 to 8 hrs by RP-HPLC analysis; assay type: ADME; settings: human, time 1-8 hrs
Escherichia coli [17] = test: Antimicrobial activity against Escherichia coli ATCC 25922 assessed as increase in absorbance incubated for 20 to 22 hrs in presence of NH4+ physiological salt; assay type: functional, organism-based; settings: time 20-22 hrs
Escherichia coli [18] = test: Antibacterial activity against Escherichia coli ATCC 25922 injected intraperitoneally in ICR mouse assessed as reduction bacterial load in kidney at 10 mg/kg, ip measured after 12 hrs by H and E staining based assay; assay type: functional, organism-based
Chymotrypsin [19] = target: T1, Chymotrypsin; test: Stability of compound assessed as chymotrypsin (unknown origin)-mediated compound structural integrity change at 8 mg/ml incubated for 1 to 8 hrs by RP-HPLC analysis; assay type: ADME, protein assay; settings: time 1-8 hrs
Cell membrane [20] = test: Induction of depolarization of cytoplasmic membrane (CM) in Escherichia coli ATCC 25922 assessed as fluorescence changes at 1/2 to 3 times of MIC by fluorescent probe DiSC3-5 assay; assay type: subcellular; settings: time 1000-3000 sec
Acinetobacter baumannii = test: Antimicrobial activity against Acinetobacter baumannii AB1902 assessed as increase in absorbance incubated for 20 to 22 hrs; assay type: functional; settings: time 20-22 hrs
[21] = Stability of compound assessed as pepsin (unknown origin)-mediated compound structural integrity change at 8 mg/ml incubated for 1 to 8 hrs by 16.5% tricine-SDS-PAGE analysis; assay type: ADME; settings: human, time 1-8 hrs
Escherichia coli [22] = test: Antibacterial activity against Escherichia coli ATCC 25922 injected intraperitoneally in ICR mouse assessed as reduction in symptoms by measuring thickened respiratory membrane in lung at 10 mg/kg, ip measured after 12 hrs by H and E staining based assay; assay type: functional, organism-based
Staphylococcus aureus = test: Antimicrobial activity against Staphylococcus aureus 29213 assessed as increase in absorbance incubated for 20 to 22 hrs; assay type: functional; settings: time 20-22 hrs
Escherichia coli [23] = test: Bactericidal activity against Escherichia coli ATCC 25922 assessed as reduction in bacterial viability at 4 uM measured within 1 hr; assay type: functional
Escherichia coli [24] = test: Inhibition of respiratory chain dehydrogenase (RCD) activity in Escherichia coli ATCC 25922 at 4 uM incubated for 90 mins by TTC assay
Salmonella typhimurium = test: Antimicrobial activity against Salmonella typhimurium 7731 assessed as increase in absorbance incubated for 20 to 22 hrs; assay type: functional, Salmonella enterica subsp. enterica serovar Typhimurium; settings: Salmonella enterica, time 20-22 hrs
[25] = Toxicity in ICR mouse assessed as aspartate aminotransferase (AST) level in serum at 5 to 20 mg/kg, ip measured after 3 days; assay type: organism-based; settings: in vivo, 72 h, dose 5-20 mg/kg, time 3 day
Escherichia coli [26] = test: Antimicrobial activity against Escherichia coli K99 assessed as increase in absorbance incubated for 20 to 22 hrs; assay type: functional; settings: time 20-22 hrs
Mus musculus [27] = test: Anti-inflammatory activity against Escherichia coli ATCC 25922-induced peritonitis ICR mouse model assessed as decrease in IL-6 level in serum spleen at 10 mg/kg, ip measured after 12 hrs; assay type: functional, organism-based
[28] = Toxicity in ICR mouse assessed as slight manifestation of stooping at 20 mg/kg, ip measured within 1 hr; assay type: organism-based; settings: in vivo
Escherichia coli [29] = test: Antibacterial activity against Escherichia coli ATCC 25922 injected intraperitoneally in ICR mouse assessed as reduction bacterial load in spleen at 10 mg/kg, ip measured after 12 hrs by H and E staining based assay; assay type: functional, organism-based
[30] = Toxicity in ICR mouse assessed as hepatic cords morphology at 5 to 20 mg/kg, ip measured after 3 days by histopathological H and E staining based assay; assay type: organism-based; settings: in vivo, 72 h, dose 5-20 mg/kg, time 3 day
Escherichia coli [31] = test: Antimicrobial activity against Escherichia coli ATCC 25922 assessed as increase in absorbance incubated for 4 hrs in presence of 25% serum; assay type: functional, organism-based
Pseudomonas aeruginosa [32] = test: Antimicrobial activity against Pseudomonas aeruginosa 27853 assessed as increase in absorbance incubated for 20 to 22 hrs; assay type: functional; settings: time 20-22 hrs
Escherichia coli [33] = test: Antibacterial activity against Escherichia coli ATCC 25922 injected intraperitoneally in ICR mouse assessed as reduction bacterial load in lung at 10 mg/kg, ip measured after 12 hrs by H and E staining based assay; assay type: functional, organism-based

CCCCCCCCCC(=O)NCCCC[C@H](N)C(=O)NCC(=O)NCC(=O)NCC(=O)N[C@H](CCCNC(=N)N)C(=O)N[C@@H](CCCNC(=N)N)C(=O)N[C@@H](CCCNC(=N)N)C(=O)N1CCC[C@H]1C(=O)N[C@@H](CSSC[C@H](NC(=O)[C@@H]1CCCN1C(=O)[C@H](CCCNC(=N)N)NC(=O)[C@H](CCCNC(=N)N)NC(=O)[C@@H](CCCNC(=N)N)NC(=O)CNC(=O)CNC(=O)CNC(=O)[C@@H](N)CCCCNC(=O)CCCCCCCCC)C(=O)O)C(=O)O
Activity (Escherichia coli [1]): ~80% | Activity [2]: Non-toxic | Activity (Escherichia coli [3]): Active | Activity (Escherichia coli [4]): Active | Activity (Escherichia coli [5]): Active | Activity (Escherichia coli [6]): Active; Negligible Alteration In Mic Values Found | Activity (Escherichia coli [7]): Active | MIC [8]: 8 µM (≈ 18.2 µg/mL) | MIC (Pseudomonas aeruginosa [9]): 4 µM (≈ 9.12 µg/mL) | Activity (Mus musculus [10]): Active | IC10 [11]: 256 µM | HC10 [12]: 256 µM | MIC (Escherichia coli [13]): 4 µM (≈ 9.12 µg/mL) | Stability (Chymotrypsin [14]): Stable | Activity (Cell membrane [15]): Dose-dependent-effect | Activity (Lipopolysaccharide (LPS)): Dose-dependent-effect | Stability [16]: Stable | Activity (Escherichia coli [17]): Active; C-C10)C-C Demonstrated Superior Physiological Salt Tolerance In Comparison To (N-C10)C-C | Activity (Escherichia coli [18]): Active | Stability (Chymotrypsin [19]): Stable | Activity (Cell membrane [20]): Time-dependent-effect | MIC (Acinetobacter baumannii): 8 µM (≈ 18.2 µg/mL) | Stability [21]: Stable | Activity (Escherichia coli [22]): Active | MIC (Staphylococcus aureus): 8 µM (≈ 18.2 µg/mL) | Activity (Escherichia coli [23]): 100% | inhibition (Escherichia coli [24]): Active | MIC (Salmonella typhimurium): 4 µM (≈ 9.12 µg/mL) | Activity [25]: Non-toxic | MIC (Escherichia coli [26]): 4 µM (≈ 9.12 µg/mL) | Activity (Mus musculus [27]): Active | Activity [28]: Toxic | Activity (Escherichia coli [29]): Active | Activity [30]: Non-toxic | Activity (Escherichia coli [31]): Active | MIC (Pseudomonas aeruginosa [32]): 4 µM (≈ 9.12 µg/mL) | Activity (Escherichia coli [33]): Active
